Source: patent US9493446B2, “Orexin receptor antagonists which are [ortho bi-(hetero-)aryl]-[2-(meta bi-(hetero-)aryl)-pyrrolidin-1-yl]-methanone derivatives” (Actelion Pharmaceuticals Ltd, priority 2012, dated 2016)
Like-named read-outs stand apart in the source and are kept apart here.

Key:
[1] = molecular target: human orexin-2 receptor (Homo sapiens (Human), UniProt O43614); experiment: Intracellular calcium measurement (FLIPR), CHO cells expressing human orexin-2 receptor, 3 nM orexin-A; type: cell-based; conditions: read-out: IC50 OX2
human orexin-2 receptor, sequence (O43614 whole entry): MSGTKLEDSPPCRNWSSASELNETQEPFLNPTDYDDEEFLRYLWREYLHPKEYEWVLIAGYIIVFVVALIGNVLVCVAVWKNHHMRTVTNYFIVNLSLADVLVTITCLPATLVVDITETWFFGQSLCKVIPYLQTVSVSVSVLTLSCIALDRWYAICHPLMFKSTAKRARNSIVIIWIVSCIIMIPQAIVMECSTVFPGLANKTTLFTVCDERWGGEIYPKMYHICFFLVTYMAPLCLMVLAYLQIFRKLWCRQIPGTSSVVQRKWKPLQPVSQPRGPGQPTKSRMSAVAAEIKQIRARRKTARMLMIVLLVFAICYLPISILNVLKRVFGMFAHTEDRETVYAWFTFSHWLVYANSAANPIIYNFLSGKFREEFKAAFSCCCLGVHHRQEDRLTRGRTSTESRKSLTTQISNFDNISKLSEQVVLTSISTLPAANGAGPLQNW
Method in brief: (§1)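 CHO cells stably expressing each receptor were loaded with 3 μM fluo-4 AM plus 5 mM probenecid for 50 min at 37 °C, then equilibrated 30 min at rt.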

[2] = molecular target: orexin-1 (Homo sapiens (Human), UniProt O43613); experiment: Intracellular calcium measurement (FLIPR), CHO cells expressing human orexin-1 receptor, 3 nM orexin-A; type: cell-based; conditions: CHO cells expressing human orexin-1 receptor, FLIPR, 3 nM orexin-A; geometric mean if determined several times; read-out: IC50 OX1
orexin-1, sequence (O43613 whole entry): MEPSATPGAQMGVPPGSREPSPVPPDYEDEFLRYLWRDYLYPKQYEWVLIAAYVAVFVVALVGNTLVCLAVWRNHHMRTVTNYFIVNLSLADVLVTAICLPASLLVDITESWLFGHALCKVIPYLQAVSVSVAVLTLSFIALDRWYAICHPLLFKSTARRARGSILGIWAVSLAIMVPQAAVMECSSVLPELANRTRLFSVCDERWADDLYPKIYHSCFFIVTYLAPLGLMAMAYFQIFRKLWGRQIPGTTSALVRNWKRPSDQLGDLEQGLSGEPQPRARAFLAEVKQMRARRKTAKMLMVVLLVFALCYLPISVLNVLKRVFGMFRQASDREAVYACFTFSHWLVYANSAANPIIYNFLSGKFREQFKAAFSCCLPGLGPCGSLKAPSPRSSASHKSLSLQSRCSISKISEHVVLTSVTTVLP
Method in brief: as §1

[3] = CHO cells expressing human orexin-2 receptor, FLIPR, 3 nM orexin-A, geometric mean if determined several times

| Compound | IC50 [1, 3] [nM] | IC50 [2] [nM] | IC50 [1] [nM] |
| --- | --- | --- | --- |
| Cc1ccc(C(=O)N2CCC[C@H]2c2nc(-c3ccccc3Cl)no2)c(-n2nccn2)c1 [compound 237] | 186 | 844 |  |
| CCOc1ncccc1-c1nc([C@@H]2CCCN2C(=O)c2cc(OC)c(Cl)cc2-n2nccn2)no1 [compound 370] | 1 | 9 |  |
| O=C(c1ccoc1)N1CCC[C@H]1c1nc(-c2ccccc2)no1 [Ref 4] | > 10000 | > 8500 |  |
| Cc1cc(C(=O)N2CCC[C@@]2(C)c2nnc(-c3ccccc3OC(F)(F)F)[nH]2)c(-n2nccn2)cc1C [compound 546, (4,5-Dimethyl-2-[1,2,3]triazol-2-yl-phenyl)-{(S)-2-methyl-2-[5-(2-trifluoromethoxy-phenyl)-4H-[1,2,4]triazol-3-yl]-pyrrolidin-1-yl}-methanone] | 8 | 4 |  |
| C[C@@]1(c2nc(-c3ccccc3)no2)CCCN1C(=O)c1ncsc1-c1cccc(Cl)c1 [compound 538] | 2810 | 941 |  |
| COc1c(F)cccc1-c1nnc([C@@H]2CCCN2C(=O)c2cc(C)c(C)cc2-n2nccn2)[nH]1 [compound 474, (4,5-Dimethyl-2-[1,2,3]triazol-2-yl-phenyl)-{(S)-2-[5-(3-fluoro-2-methoxy-phenyl)-4H-[1,2,4]triazol-3-yl]-pyrrolidin-1-yl}-methanone] | 8 | 16 |  |
| COc1cc(C(=O)N2CCC[C@H]2c2nc(-c3cccc(Cl)c3C)no2)c(-n2nccn2)cc1OC [compound 133] | 36 | 522 |  |
| COc1cc(C)cc(-c2nc([C@@H]3CCCN3C(=O)c3cc(Cl)ccc3-n3nccn3)no2)c1 [compound 415] |  | 193 | 49 |

The next lines start with results.

| IC50 [1, 3] [nM] | IC50 [2] [nM] | Compound | IC50 [1] [nM] |
| --- | --- | --- | --- |
| 52 | 198 | COc1cc(O)ccc1-c1noc([C@@H]2CCCN2C(=O)c2cc(C)ccc2-n2nccn2)n1 [compound 64, {(S)-2-[3-(4-Hydroxy-2-methoxy-phenyl)-[1,2,4]oxadiazol-5-yl]-pyrrolidin-1-yl}-(5-methyl-2-[1,2,3]triazol-2-yl-phenyl)-methanone] |  |
| 9 | 12 | Cc1ccc(-c2ccccc2)c(C(=O)N2CCC[C@H]2c2nc(-c3ccccc3OC(F)(F)F)no2)c1 [compound 136, (4-Methyl-biphenyl-2-yl)-{(S)-2-[3-(2-trifluoromethoxy-phenyl)-[1,2,4]oxadiazol-5-yl]-pyrrolidin-1-yl}-methanone] |  |
| 4 | 22 | CCOc1ccccc1-c1noc([C@@H]2CCCN2C(=O)c2cc(C)ccc2-n2nccn2)n1 [compound 40, {(S)-2-[3-(2-Ethoxy-phenyl)-[1,2,4]oxadiazol-5-yl]-pyrrolidin-1-yl}-(5-methyl-2-[1,2,3]triazol-2-yl-phenyl)-methanone] |  |
| 23 | 284 | Cc1ccc(-n2nccn2)c(C(=O)N2CCC[C@H]2c2nc(-c3cccc(OC(F)F)c3)no2)c1 [compound 43, {(S)-2-[3-(3-Difluoromethoxy-phenyl)-[1,2,4]oxadiazol-5-yl]-pyrrolidin-1-yl}-(5-methyl-2-[1,2,3]triazol-2-yl-phenyl)-methanone] |  |
| 14 | 110 | COCc1ccccc1-c1noc([C@@H]2CCCN2C(=O)c2cc(C)ccc2-n2nccn2)n1 [compound 44, {(S)-2-[3-(2-Methoxymethyl-phenyl)-[1,2,4]oxadiazol-5-yl]-pyrrolidin-1-yl}-(5-methyl-2-[1,2,3]triazol-2-yl-phenyl)-methanone] |  |
| 646 | 400 | CCCOc1ccccc1-c1nnc([C@@H]2CCCN2C(=O)c2cc(C)ccc2-n2nccn2)[nH]1 [compound 515, (5-Methyl-2-[1,2,3]triazol-2-yl-phenyl)-{(S)-2-[5-(2-propoxy-phenyl)-4H-[1,2,4]triazol-3-yl]-pyrrolidin-1-yl}-methanone] |  |
